In assay [1] the test system is brown skin surface lipids of the rats. Nature of the assay: Rat skin browning test for antiseborrheic (sebosuppressive) effect, visual assessment of shaved back. As to conditions: topical; for Evaluation of sebosuppressive effects, evaluation method 1 (examiners recognizing the treated side) / Evaluation of sebosuppressive effects, evaluation method 2 (difference between righthand and lefthand side) / Evaluation of sebosuppressive effects, evaluation method 3 (difference in intensity of brown shades vs control animals): once daily for a total of 9 days over 14 days; for Sebum reduction: points difference / points of control group. It counts as in vivo, male Wistar rats. The text has this: The antiseborrheic effect was closely studied using the animal tests described in the following: The test animals were male Wistar rats having a body weight of 220 to 230 g. The degree of browning on the shaved back of the rats was visually assessed. Browning is produced by the brown skin surface lipids of the rats. This test is based on the observation that young male and female rats washed with surfactant solution or with a lipid solvent and also male rats systematically treated with oestrogen have only the normal light, pick-colored skin after shaving. At the same time, only comparatively very small quantities of lipids can be extracted from shaved hairs. In order to assess effectiveness, the test substances in solution in alcohol were each brushed onto half the back of 6 rats. The other half was only treated with the solvent minus active substances. Over the test period of 14 days, the test substances were applied once daily for a total of 9 days. A group of 6 rats which remained completely untreated was used for further control. At the end of the test, the animals were shaved on their back and sides and were visually assessed independently by an examination panel of 6 people under double blind conditions. The first criterion evaluated was whether the majority of examiners correctly recognized the treated side, differentiation being carried out as follows: The second criterion evaluated was the difference between the righthand side and the lefthand side, each examiner having to award 1 point per animal on the following basis: Significant differences between the untreated and treated sides in the second method of evaluation indicated the local effectiveness of a substance. The third criterion evaluated was the difference in intensity between the shades of brown using the following scale: In the third method of evaluation, the total point differences are compared between the untreated control animals and the treated and untreated sides of the test animals, significant differences between the control animals and the treated side of the test animals again indicating the effectiveness of a substance. There is generally also a distinct difference between the untreated and treated sides of the same test animals. However, this difference is not always as clear as that between the control animals and the treated sides, for which there may be various reasons, such as mechanical transfer of substance from one side to the other or solvent influence. The following scheme was used for differentiating the effects according to evaluation methods 2 and 3: The sebum reduction is calculated from the points difference by working out the quotient between the points difference ΔP and the number of points for the control group Pk, and expressing the value obtained in percent. [formula] The benzyl alcohol derivatives were applied in the manner described in concentrations of 0.5 and 1.0% in alcohol/acetone (1:1).

For assay [2], the system named is secretion of the sebaceous glands. The settings on record: known additives of U.S. Pat. No. 4,331,655 / German Patent Application 29 26 267; cited from earlier work.

As for `CC(C)(C)c1ccc(CO)cc1` [F, 4-tert.-butylbenzyl alcohol], in assay [1] (1.0% in alcohol/acetone (1:1)), the “Evaluation of sebosuppressive effects, evaluation method 1 (examiners recognizing the treated side)” value is listed as “++ (100%)”; the “Evaluation of sebosuppressive effects, evaluation method 2 (difference between righthand and lefthand side)” value is reported as “++ (very large (≥99.9% probability))”; the “Evaluation of sebosuppressive effects, evaluation method 3 (difference in intensity of brown shades vs control animals)” value is on record as “++ (very large (≥99.9% probability))”; the Sebum reduction is 56%.
As for `CCCCCCCCCCCCc1ccc(CO)cc1` [C, 4-dodecylbenzyl alcohol], in assay [1] (0.5% in alcohol/acetone (1:1)), the “Evaluation of sebosuppressive effects, evaluation method 1 (examiners recognizing the treated side)” value is reported as “++ (100%)”; the “Evaluation of sebosuppressive effects, evaluation method 2 (difference between righthand and lefthand side)” value is recorded as “++ (very large (≥99.9% probability))”; the “Evaluation of sebosuppressive effects, evaluation method 3 (difference in intensity of brown shades vs control animals)” value is listed as “++ (very large (≥99.9% probability))”; the Sebum reduction is 32%.
As for `CCCCCCCCCCOCc1ccc(CO)cc1` [D, 4-decyloxymethylbenzyl alcohol], in assay [1] (0.5% in alcohol/acetone (1:1)), the “Evaluation of sebosuppressive effects, evaluation method 1 (examiners recognizing the treated side)” value is “++ (100%)”; the “Evaluation of sebosuppressive effects, evaluation method 2 (difference between righthand and lefthand side)” value is listed as “++ (very large (≥99.9% probability))”; the “Evaluation of sebosuppressive effects, evaluation method 3 (difference in intensity of brown shades vs control animals)” value is “++ (very large (≥99.9% probability))”; the Sebum reduction turned out to be 82%.
On to `CC(=O)OCC=C(C)CCC=C(C)CCC=C(C)C` [3,7,11-tri:methyl-2,6,10-dodecatri:en-1-ol acetate], for which the antiseborrheic effect result in assay [2] was “only a very weak antiseborrheic effect”.
`OCc1ccc(-c2ccccc2)cc1` [E, 4-phenylbenzyl alcohol]: in assay [1] (0.5% in alcohol/acetone (1:1)), the “Evaluation of sebosuppressive effects, evaluation method 1 (examiners recognizing the treated side)” value is reported as “++ (100%)”; the “Evaluation of sebosuppressive effects, evaluation method 2 (difference between righthand and lefthand side)” value is reported as “++ (very large (≥99.9% probability))”; the “Evaluation of sebosuppressive effects, evaluation method 3 (difference in intensity of brown shades vs control animals)” value was “++ (very large (≥99.9% probability))”; the Sebum reduction was 72%.
For the compound `CCCCCCCCc1ccc(CO)cc1` [A, 4-octylbenzyl alcohol], in assay [1] (0.5% in alcohol/acetone (1:1)), the “Evaluation of sebosuppressive effects, evaluation method 1 (examiners recognizing the treated side)” value was “++ (100%)”; the “Evaluation of sebosuppressive effects, evaluation method 2 (difference between righthand and lefthand side)” value is “++ (very large (≥99.9% probability))”; the “Evaluation of sebosuppressive effects, evaluation method 3 (difference in intensity of brown shades vs control animals)” value is reported as “++ (very large (≥99.9% probability))”; the Sebum reduction is on record as 94%.
Regarding `CCCCCCCCCCc1ccc(CO)cc1` [B, 4-decylbenzyl alcohol], in assay [1] (0.5% in alcohol/acetone (1:1)), the “Evaluation of sebosuppressive effects, evaluation method 1 (examiners recognizing the treated side)” value is on record as “++ (100%)”; the “Evaluation of sebosuppressive effects, evaluation method 2 (difference between righthand and lefthand side)” value is recorded as “++ (very large (≥99.9% probability))”; the “Evaluation of sebosuppressive effects, evaluation method 3 (difference in intensity of brown shades vs control animals)” value is “++ (very large (≥99.9% probability))”; the Sebum reduction is reported as 95%.
Regarding `CCOCC=C(C)CCC=C(C)CCC=C(C)C` [3,7,11-tri:methyl-2,6,10-dodecatri:en-1-ol ethyl ether], the antiseborrheic effect entry in assay [2] is recorded as “only a very weak antiseborrheic effect”.
Consider `OCc1ccccc1` [Benzyl alcohol], for which, in assay [1] (1.0% in alcohol/acetone (1:1)), the “Evaluation of sebosuppressive effects, evaluation method 1 (examiners recognizing the treated side)” value is reported as 0 (≥50%); the “Evaluation of sebosuppressive effects, evaluation method 2 (difference between righthand and lefthand side)” value is given as 0 (minimal (<95% probability)); the “Evaluation of sebosuppressive effects, evaluation method 3 (difference in intensity of brown shades vs control animals)” value is 0 (minimal (<95% probability)); the Sebum reduction was 0%.
